Test results as given in US8690865B2, “Methods and devices for thermal treatment” (Georgia Tech Research Corporation, priority 2004, dated 2014).
Read-outs that look alike come from different tables or passages of the source.

Assays:
[1] = skin permeability measurement in Franz diffusion cell after microheater microablation
Description: Microheater components are tested for use in ablation of stratum corneum and increasing barrier permeability and increased drug transport by assessing transport across cadaver skin by three different molecules. Calcein is a low molecular weight (623 Da) fluorescent molecule used to measure skin permeability by spectrofluorimetric assay and image transport pathways in skin by confocal microscopy. […] Insulin is a polypeptide (6 kDa) that will be used for comparison with in vivo studies involving insulin delivery to diabetic rats. To perform skin permeability measurements, cadaver epidermis is placed in a Franz diffusion cell at 37° C. and an array of microheaters is then positioned on the stratum corneum side and thermally activated to cause microablation. […] Every hour, or more frequently, 1 ml of receptor solution is sampled, and replaced with fresh saline, and fluorescence intensity is measured using calibrated spectrofluorometry and analyzed to determine rates of transdermal delivery.

[2] = in vivo transport into and across skin treated with thermal treatment device; design: species or system Sprague-Dawley hairless rat; conditions: hairless rat skin treated with thermal treatment device; brief exposure to dye or over an hour to calcein solution
Description: (§1) The in vivo skin model is a Sprague-Dawley hairless rat, a commonly used model for human skin permeability due to the similarity of hairless rat and human skin. For initial studies, rats ARE anesthetized by intraperitoneal injection of urethane (1000 mg/kg) and treated with a thermal treatment device of the present invention. The skin is exposed either briefly to a blue tissue marking dye to visualize the size and location of pores, or exposed for over an hour to a calcein solution to image the transdermal transport process. After sacrificing the animal, skin specimens are excised and prepared for histological examination by cryostat sectioning.

[3] = insulin delivery through micropores in streptozotocin-diabetic rats; type: in vivo, rat; conditions: treated skin area exposed to Humulin-R insulin solution
Description: as §1
For insulin delivery studies, rats are made diabetic by intravenous injection with 100 mg/kg streptozotocin, which produces diabetes the next day due to destruction of pancreatic islet cells. Under urethane anesthesia, skin is treated with a thermal treatment device of the present invention and the treated skin area is exposed to an Humulin-R insulin solution. Blood samples are collected by tail veil laceration over time to measure glucose concentration using a FreeStyle glucose monitor to determine pharmacodynamic response and to measure insulin concentration by radioimmunoassay to determine pharmacokinetic response, after which the animal is sacrificed.

Row | Compound | transport across cadaver skin (measured in receptor solution) [1] | transport into micropores and across the epidermis (histological tissue sections) [2] | transport across cadaver skin (measured in receptor solution) ([1]; cadaver epidermis, Franz diffusion cell at 37° C., after microablation by microheater array, added individually to donor compartment) | blood glucose (pharmacodynamic response) [3] | insulin concentration in blood (radioimmunoassay, pharmacokinetic response) [3]
1 | O=C(O)CN(CC(=O)O)Cc1cc2c(cc1O)Oc1cc(O)c(CN(CC(=O)O)CC(=O)O)cc1C21OC(=O)c2ccccc21 [Calcein] | later measured in the receptor solution | show transport of the molecules into the micropores and with time, transport across the epidermis |  |  | 
2 | Insulin |  |  | later measured in the receptor solution | response to glucose control | insulin in the blood
